Laboratory results from paper PMC5219024, “New acetylenic derivatives of betulin and betulone, synthesis and cytotoxic activity” (Medicinal Chemistry Research, 2016).
≈ marks a conversion by molar mass, not a printed value.

Columns and labels:
[1] = system: mouse melanoma (B16 2F2) cell line; design: method as in Hata et al., [2002]; conditions: ref Hata et al., [2002], read-out: anticancer effect IC50, B16 2F2; cited from earlier work
[2] = system: cyprid larvae of the barnacle Balanus albicostatus; design: method as in Chen et al., [2011]; conditions: ref Chen et al., [2011]; cited from earlier work
P388 (mouse leukemia) [3] = system: P388 (mouse leukemia); design: method as in Boryczka et al. ([2013a], [b]); conditions: murine P388; Neg = negative in the concentration used; ref Boryczka et al. ([2013a], [b]); cited from earlier work
[4] = system: T47D (human breast cancer); design: method as in Boryczka et al. ([2013a], [b]); conditions: Neg = negative in the concentration used, ref Boryczka et al. ([2013a], [b]); cited from earlier work
[5] = system: BALB3T3 normal mouse fibroblasts; design: method as in Boryczka et al. ([2013a], [b]); conditions: murine BALB3T3 normal fibroblasts; Neg = negative in the concentration used; ref Boryczka et al. ([2013a], [b]); cited from earlier work
[6] = system: CCRF/CEM (human leukemia); design: method as in Boryczka et al. ([2013a], [b]); conditions: Neg = negative in the concentration used, ref Boryczka et al. ([2013a], [b]); cited from earlier work
SW707 (human colorectal) [7] = system: SW707 (human colorectal); design: method as in Boryczka et al. ([2013a], [b]); conditions: Neg = negative in the concentration used, ref Boryczka et al. ([2013a], [b]); cited from earlier work
[8] = system: HL-60 (human promyelocytic leukemia); experiment: Antiproliferative assay in vitro (MTT), HL-60; assay type: cell-based; conditions: for IC50: Homo sapiens, HL-60 cancer cell line, 96 h exposure, read-out: Cytotoxic activity IC50, HL-60
Description: (§1) The tested cell lines were obtained from the American Type Culture Collection (Rockville, Maryland, USA) and maintained at the Cell Culture Collection of the Institute of Immunology and Experimental Therapy (Wrocław, Poland). The cells were seeded in 96-well plates (Sarstedt, USA) at a density of 10^4 cells per well in 100 µL of culture medium overnight. […] The normal mouse fibroblasts BALB3T3 was cultured in Dulbecco’s modified Eagle’s medium (Sigma-Aldrich, Chemie GmbH, Steinheim, Germany) supplemented with 2 mM glutamine (Sigma-Aldrich, Chemie GmbH, Steinheim, Germany) and 10 % fetal calf serum FBS (Sigma-Aldrich, Chemie GmbH, Steinheim, Germany). The all culture media were supplemented with streptomycin (100 µg/mL) and penicillin (100 U/mL) (both antibiotics from Polfa, Tarchomin, Poland). The cell cultures were maintained at 37 °C in humid atmosphere saturated with 5 % CO2. The MTT assay was used for the cytotoxicity screening against leukemia cells growing in suspension culture. This assay was performed after 96 h of the leukemia cells to varying concentrations (ranging from 1 to 100 µg/mL) of the tested substances. The derivatives of betulin were dissolved in 10 % DMSO to concentration of 1 mg/mL, and next diluted in culture medium to reach the required concentrations. […] During the last 3–4 h of incubation 20 µl of MTT solution were added to each well (MTT: 3-(4,5-dimethylthiazol-2-yl)-2,5-diphenyl tetrazolium bromide; stock solution: 5 mg/mL). The pale yellow MTT is reduced to a navy blue formazan in the mitochondria of living cells. At the end of incubation time, 80 µL of the lysing mixture was added to each well (lysing mixture: 225 mL dimethylformamide, 67.5 g sodium dodecyl sulfate and 275 mL of distilled water). After 24 h are formed the crystals of formazan, which are insoluble in aqueous solutions. The formazan crystals had been dissolved. The optical densities were read on a Multiskan RC photometer at 570 nm wavelength. The compounds in given concentration were examined in triplicates in each experiment which was repeated 3–5 times. The results of cytotoxic activity in vitro were expressed as an IC50 in µg/mL.

P388 (mouse leukemia) [9] = experiment: Antiproliferative assay in vitro (MTT), P388; assay type: cell-based; conditions: Mus musculus; murine P388; 96 h exposure; 1 to 100 µg/mL; Neg = negative in the concentration used; read-out: Cytotoxic activity IC50, P388
Description: as §1

[10] = Antiproliferative assay in vitro (SRB), BALB3T3; assay type: cell-based, mouse; conditions: mouse; murine BALB3T3 normal fibroblasts; 96 h exposure; 1 to 100 µg/mL; Neg = negative in the concentration used; read-out: Cytotoxic activity IC50, BALB3T3
Description: (§2) The tested cell lines were obtained from the American Type Culture Collection (Rockville, Maryland, USA) and maintained at the Cell Culture Collection of the Institute of Immunology and Experimental Therapy (Wrocław, Poland). The cells were seeded in 96-well plates (Sarstedt, USA) at a density of 10^4 cells per well in 100 µL of culture medium overnight. […] The normal mouse fibroblasts BALB3T3 was cultured in Dulbecco’s modified Eagle’s medium (Sigma-Aldrich, Chemie GmbH, Steinheim, Germany) supplemented with 2 mM glutamine (Sigma-Aldrich, Chemie GmbH, Steinheim, Germany) and 10 % fetal calf serum FBS (Sigma-Aldrich, Chemie GmbH, Steinheim, Germany). The all culture media were supplemented with streptomycin (100 µg/mL) and penicillin (100 U/mL) (both antibiotics from Polfa, Tarchomin, Poland). The cell cultures were maintained at 37 °C in humid atmosphere saturated with 5 % CO2. This technique as first was described by Skehan et al. in [1990]. The SRB assay was performed after 96 h exposure of the cultured cells to varying concentrations (ranging from 1 to 100 µg/mL) of the tested substances. The reported derivatives as well as betulin 1 were dissolved in 10 % dimethyl sulfoxide (DMSO) to concentration of 1 mg/mL, and next diluted in culture medium to reach the required concentrations. […] The cells fastened to the plastic were fixed mildly layering cold 50 % TCA (trichloroacetic acid, Aldrich-Chemie, Germany) on the top of the culture medium in each well. The plates were incubated at 4 °C for 1 h and then washed five times with tap water. The cells fixed with TCA were stained with 0.4 % sulforhodamine B (SRB, Sigma, Germany) dissolved in 1 % acetic acid (POCH, Gliwice, Poland) for 30 min. The unbound dye was removed by rinsing four times with 1 % acetic acid. The protein-bound dye was extracted with 10 mM unbuffered tris base (POCH, Gliwice, Poland) and then determined the optical density at 540 nm in a computer-interfaced, 96-well microtiter plate reader Multiscan RC photometer (Labsystems, Helsinki, Finland). The compounds in given concentration were examined in triplicates in each experiment which was repeated 3–5 times. The results of cytotoxic activity in vitro were expressed as an IC50 in µg/mL.

[11] = system: T47D (human breast cancer); experiment: Antiproliferative assay in vitro (SRB), T47D; assay type: cell-based; conditions: human T47D; 96 h exposure; 1 to 100 µg/mL; Neg = negative in the concentration used; read-out: Cytotoxic activity IC50, T47D
Description: as §2

[12] = system: CCRF/CEM (human leukemia); experiment: Antiproliferative assay in vitro (MTT), CCRF/CEM; assay type: cell-based; conditions: human CCRF/CEM; 96 h exposure; 1 to 100 µg/mL; Neg = negative in the concentration used; read-out: Cytotoxic activity IC50, CCRF/CEM
Description: as §1

SW707 (human colorectal) [13] = experiment: Antiproliferative assay in vitro (SRB), SW707; assay type: cell-based; conditions: human SW707; 96 h exposure; 1 to 100 µg/mL; Neg = negative in the concentration used; read-out: Cytotoxic activity IC50, SW707
Description: as §2

Structure (SMILES)	IC50 [1] [µM]	antifouling activity EC50 [2] [µg/mL]	Cytotoxic activity IC50, P388 (P388 (mouse leukemia) [3])	Cytotoxic activity IC50, T47D [4]	Cytotoxic activity IC50, BALB3T3 [5]	Cytotoxic activity IC50, CCRF/CEM [6] [µg/mL]	Cytotoxic activity IC50, SW707 (SW707 (human colorectal) [7])	IC50 [8] [µg/mL]	fold potent than betulin 1 against HL-60 ([8]; relative to betulin 1, HL-60) [fold]	IC50 (P388 (mouse leukemia) [9]) [µg/mL]	IC50 at 96 h [10] [µg/mL]	IC50 [11] [µg/mL]	IC50 [12] [µg/mL]	IC50 (SW707 (human colorectal) [13]) [µg/mL]	melting point [°C]
C=C(C)[C@@H]1CC[C@]2(CO)CC[C@]3(C)[C@H](CC[C@@H]4[C@@]5(C)CCC(=O)C(C)(C)[C@@H]5CC[C@]43C)[C@@H]12 [Betulone 2, lup-20(29)-en-28-ol-3-one]	29.3	8.73	–	–	–	–	–	–	–	–	–	–	–	–	–
C=C(C)[C@@H]1CC[C@]2(COC(=O)CC)CC[C@]3(C)C(CCC4[C@@]5(C)CC[C@H](O)C(C)(C)C5CC[C@]43C)C12 (stereo partly drawn) [Compound 3]	–	–	3.3 ± 0.8 µg/mL	12.1 ± 4.4 µg/mL	32.3 ± 23.0 µg/mL	8.1 ± 0.9	29.2 ± 24.4 µg/mL	29.3 ± 3.4 (≈ 58.7 µM)	–	–	–	–	–	–	–
C#CC(=O)OC[C@]12CC[C@@H](C(=C)C)C1C1CCC3[C@@]4(C)CC[C@H](O)C(C)(C)C4CC[C@@]3(C)[C@]1(C)CC2 (stereo partly drawn) [Compound 5, 28-O-propynoylbetulin]	–	–	0.4 ± 0.1 µg/mL	9.1 ± 1.9 µg/mL	0.3 ± 0.05 µg/mL	0.02 ± 0.001	14.9 ± 3.3 µg/mL	0.3 ± 0.004 (≈ 0.606 µM)	24	–	–	–	–	–	–
C=C(C)[C@@H]1CC[C@]2(COC(=O)C#Cc3ccccc3)CC[C@]3(C)C(CCC4[C@@]5(C)CC[C@H](O)C(C)(C)C5CC[C@]43C)C12 (stereo partly drawn) [Compound 7]	–	–	Neg	Neg	Neg	49.0 ± 9.8	Neg	–	–	–	–	–	–	–	–
C=C(C)[C@@H]1CC[C@]2(COC(=O)C#CC)CC[C@]3(C)C(CCC4[C@@]5(C)CC[C@H](O)C(C)(C)C5CC[C@]43C)C12 (stereo partly drawn) [Compound 9, 28-O-(2-Butynoyl)betulin]	–	–	–	–	–	–	–	24.5 ± 1.9 (≈ 48.2 µM)	–	2.9 ± 1.4 (≈ 5.7 µM)	17.4 ± 1.1 (≈ 34.2 µM)	16.7 ± 5.5 (≈ 32.8 µM)	2.1 ± 0.3 (≈ 4.13 µM)	24.3 ± 8.8 (≈ 47.8 µM)	111 to 113
